Measured values: the CheMixHub viscosity set
Values joined by “and” are separate entries in the source; they are usually repeats but may differ in a detail not shown here. Equal values may be shown once.

Assay: xn = mol fraction of the nth substance listed

C=C(C)C(=O)OC + CC#N
viscosity [mPa·s], 101 kPa
Settings | 298.15 K | 303.15 K | 308.15 K | 313.15 K | 318.15 K
x2 = 0.0688 | 0.5536 | 0.5171 | 0.4878 | 0.4643 | 0.4465
x2 = 0.1376 | 0.5439 | 0.5091 | 0.4811 | 0.4585 | 0.4413
x2 = 0.1957 | 0.5346 | 0.5013 | 0.4745 | 0.4526 | 0.4359
x2 = 0.2716 | 0.5214 | 0.4899 | 0.4643 | 0.4435 | 0.4275
x2 = 0.3344 | 0.5094 | 0.4795 | 0.455 | 0.435 | 0.4194
x2 = 0.4135 | 0.4932 | 0.4651 | 0.442 | 0.423 | 0.4079
x2 = 0.4916 | 0.4761 | 0.4498 | 0.4281 | 0.41 | 0.3954
x2 = 0.5649 | 0.4592 | 0.4344 | 0.4138 | 0.3967 | 0.3825
x2 = 0.6386 | 0.4413 | 0.4183 | 0.3988 | 0.3825 | 0.3687
x2 = 0.7084 | 0.4238 | 0.4023 | 0.3839 | 0.3683 | 0.3549
x2 = 0.7927 | 0.402 | 0.3823 | 0.3652 | 0.3505 | 0.3375
x2 = 0.855 | 0.3855 | 0.3672 | 0.351 | 0.3367 | 0.324
x2 = 0.9073 | 0.3714 | 0.3541 | 0.3387 | 0.3249 | 0.3123
x2 = 0.9497 | 0.3599 | 0.3435 | 0.3286 | 0.3152 | 0.3028

ClCCCCCCCl + Cc1ccccc1C
viscosity [mPa·s], 101 kPa
Settings | x1 = 0.09207 | x1 = 0.1778 | x1 = 0.2577 | x1 = 0.3658 | x1 = 0.469 | x1 = 0.5509 | x1 = 0.6697 | x1 = 0.7481 | x1 = 0.8853
308.15 K | 0.731 | 0.797 | 0.859 | 0.954 | 1.049 | 1.131 | 1.253 | 1.336 | 1.493
313.15 K | 0.689 | 0.75 | 0.809 | 0.901 | 0.994 | 1.073 | 1.191 | 1.272 | 1.419
318.15 K | 0.652 | 0.708 | 0.767 | 0.848 | 0.932 | 1.001 | 1.1 | 1.169 | 1.287

CCCCOP(=O)(O)OCCCC + CC(C)N
297 K, 101 kPa
Settings | viscosity [mPa·s]
x2 = 0.15 | 80
x2 = 0.3 | 240
x2 = 0.48 | 4070
x2 = 0.5 | 4750
x2 = 0.66 | 260
x2 = 0.85 | 100

CCCCC/C=C\C/C=C\CCCCCCCC(=O)OCC(COC(=O)CCCCCCC/C=C\C/C=C\CCCCC)OC(=O)CCCCCCC/C=C\C/C=C\CCCCC + Cc1ccc(C)cc1
viscosity [mPa·s], 101.3 kPa
Settings | x1 = 0.000712 | x1 = 0.001435 | x1 = 0.00217 | x1 = 0.002914 | x1 = 0.003771 | x1 = 0.004524 | x1 = 0.005322 | x1 = 0.006113
298.15 K | 0.6159 | 0.6268 | 0.638 | 0.6494 | 0.6627 | 0.6742 | 0.6861 | 0.6966
303.15 K | 0.5801 | 0.5903 | 0.6008 | 0.6115 | 0.6238 | 0.6346 | 0.6455 | 0.6549
308.15 K | 0.5474 | 0.557 | 0.5668 | 0.5769 | 0.5885 | 0.5985 | 0.6085 | 0.617
313.15 K | 0.5174 | 0.5265 | 0.5358 | 0.5453 | 0.5561 | 0.5654 | 0.5747 | 0.5824
318.15 K | 0.49 | 0.4986 | 0.5074 | 0.5163 | 0.5265 | 0.5352 | 0.5437 | 0.5507

C=C(C)C(=O)OC + Cc1ccccc1
303.15 K, 101 kPa
Settings | viscosity [mPa·s]
x1 = 0.1041 | 0.5201
x1 = 0.2049 | 0.5187
x1 = 0.4069 | 0.5163
x1 = 0.5046 | 0.5155
x1 = 0.6068 | 0.5148
x1 = 0.798 | 0.5141
x1 = 0.896 | 0.5141

Cc1cccc(C)c1O + C[N+](C)(C)CCO.[Cl-]
298.15 K, 101.33 kPa
Settings | viscosity
x1 = 0.7 | 151.2 mPa·s
x1 = 0.8 | 86.79 mPa·s and 61.87 mPa·s and 54.12 mPa·s
x1 = 0.9 | 50.22 mPa·s

C[N+](C)(C)CCC[N+]1(C)CCCCC1.N#C[N-]C#N.N#C[N-]C#N + CC#N
viscosity [mPa·s], 100 kPa
Settings | x1 = 0.0999 | x1 = 0.7001 | x1 = 0.7996
298.15 K | – | – | 895.3
318.15 K | 2.675 | 163.5 | –

C=C(C)C(=O)OC + C1CCCCC1
303.15 K, 101 kPa
Settings | viscosity [mPa·s]
x1 = 0.1178 | 0.6811
x1 = 0.2021 | 0.6254
x1 = 0.3973 | 0.5474
x1 = 0.4984 | 0.5261
x1 = 0.5963 | 0.5188
x1 = 0.804 | 0.5141
x1 = 0.9019 | 0.5099
